Results on 27 compounds are retold here after patent US12162858B2, “Quinoline derivatives as inhibitors of AXL/MER RTK and CSF1R” (QURIENT CO., LTD., priority 2018, dated 2024).

One assay has as its target T1, Axl (Homo sapiens, UniProt P30530).
T1 sequence (P30530 26-894): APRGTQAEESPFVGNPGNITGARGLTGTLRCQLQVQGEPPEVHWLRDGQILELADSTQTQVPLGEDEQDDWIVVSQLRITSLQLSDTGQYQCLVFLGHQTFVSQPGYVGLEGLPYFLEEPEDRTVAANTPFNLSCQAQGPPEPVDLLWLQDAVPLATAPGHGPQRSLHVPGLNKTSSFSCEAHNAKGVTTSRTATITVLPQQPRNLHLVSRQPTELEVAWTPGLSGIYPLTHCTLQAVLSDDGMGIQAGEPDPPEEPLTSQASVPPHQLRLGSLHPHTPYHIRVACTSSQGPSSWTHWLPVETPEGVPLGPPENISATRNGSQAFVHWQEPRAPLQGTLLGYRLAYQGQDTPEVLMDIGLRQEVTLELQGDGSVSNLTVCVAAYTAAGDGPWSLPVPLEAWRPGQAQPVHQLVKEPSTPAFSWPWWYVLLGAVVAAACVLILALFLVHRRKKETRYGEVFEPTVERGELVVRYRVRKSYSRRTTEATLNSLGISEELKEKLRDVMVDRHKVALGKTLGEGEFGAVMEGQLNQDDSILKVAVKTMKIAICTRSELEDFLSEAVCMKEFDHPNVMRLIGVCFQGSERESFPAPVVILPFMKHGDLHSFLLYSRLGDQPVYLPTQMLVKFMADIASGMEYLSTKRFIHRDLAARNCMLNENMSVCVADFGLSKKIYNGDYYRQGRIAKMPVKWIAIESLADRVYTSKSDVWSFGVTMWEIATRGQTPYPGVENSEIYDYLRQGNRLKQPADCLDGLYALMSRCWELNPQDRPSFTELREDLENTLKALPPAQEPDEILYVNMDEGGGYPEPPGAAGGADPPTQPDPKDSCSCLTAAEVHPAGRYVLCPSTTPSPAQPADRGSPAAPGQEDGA
The assay can be described thus: LanthaScreen Eu kinase binding assay for Axl. As to conditions: read-out: Axl kinase binding activity (Kd). As for the experimental part:
(§1) LanthaScreen® Eu Kinase Binding assays were conducted at Life Technologies using the manufacturer's specifications for each kinase indicated.
(§2) Briefly, the principle behind this assay is based upon the binding and displacement of an Alexa Fluor 647-labeled tracer to the kinase of interest. Binding of the tracer to the kinase is detected using an EU-labeled anti-tag antibody. Simultaneous binding of both the tracer and antibody to the kinase gives rise to a FRET-signal. Binding of an inhibitor to the kinase competes for binding with the tracer, resulting in a loss of FRET-signal.
(§3) A given compound was diluted in DMSO to make a stock compound solution. The stock compound solution was serially diluted over eight steps in DMSO. Each diluted compound solution in DMSO was diluted in kinase buffer. Afterwards four kinds of working solution were prepared. First, Tracer-Working solution consists of Tracer 236 and Kinase Buffer. Second, Axl, Mer, Tyro3 or Met/anti-GST-AB-Working solution contained one of the kinases Axl, and Mer or anti-GST-AB (=anti glutathione-S-transferase antibody) in Kinase Buffer. Third, anti-GST-AB-Working solution was made with anti-GST-AB and Kinase Buffer. Last, in the DMSO-Working solution DMSO was added to Kinase Buffer to a final concentration to 3%. Each of the four kinds of working solutions were separately added to the assay plate and then incubated for 1 h at room temperature. After incubation, the assay plate was measured with respect to the FRET-Signal with the EnVision (Perkin Elmer) using the program LanthaHTRF-Assay. Data evaluation was done in the Quattro Workflow software. Kd (the equilibrium dissociation constant) values were calculated relative to vehicle (DMSO) control wells.
(Time-resolved FRET reads energy transfer from a long-lived donor to a nearby acceptor.)

The target in the next assay is T2, Mer (Homo sapiens, UniProt Q12866).
T2 construct: purchased Life Technologies
T2 sequence (Q12866 21-999): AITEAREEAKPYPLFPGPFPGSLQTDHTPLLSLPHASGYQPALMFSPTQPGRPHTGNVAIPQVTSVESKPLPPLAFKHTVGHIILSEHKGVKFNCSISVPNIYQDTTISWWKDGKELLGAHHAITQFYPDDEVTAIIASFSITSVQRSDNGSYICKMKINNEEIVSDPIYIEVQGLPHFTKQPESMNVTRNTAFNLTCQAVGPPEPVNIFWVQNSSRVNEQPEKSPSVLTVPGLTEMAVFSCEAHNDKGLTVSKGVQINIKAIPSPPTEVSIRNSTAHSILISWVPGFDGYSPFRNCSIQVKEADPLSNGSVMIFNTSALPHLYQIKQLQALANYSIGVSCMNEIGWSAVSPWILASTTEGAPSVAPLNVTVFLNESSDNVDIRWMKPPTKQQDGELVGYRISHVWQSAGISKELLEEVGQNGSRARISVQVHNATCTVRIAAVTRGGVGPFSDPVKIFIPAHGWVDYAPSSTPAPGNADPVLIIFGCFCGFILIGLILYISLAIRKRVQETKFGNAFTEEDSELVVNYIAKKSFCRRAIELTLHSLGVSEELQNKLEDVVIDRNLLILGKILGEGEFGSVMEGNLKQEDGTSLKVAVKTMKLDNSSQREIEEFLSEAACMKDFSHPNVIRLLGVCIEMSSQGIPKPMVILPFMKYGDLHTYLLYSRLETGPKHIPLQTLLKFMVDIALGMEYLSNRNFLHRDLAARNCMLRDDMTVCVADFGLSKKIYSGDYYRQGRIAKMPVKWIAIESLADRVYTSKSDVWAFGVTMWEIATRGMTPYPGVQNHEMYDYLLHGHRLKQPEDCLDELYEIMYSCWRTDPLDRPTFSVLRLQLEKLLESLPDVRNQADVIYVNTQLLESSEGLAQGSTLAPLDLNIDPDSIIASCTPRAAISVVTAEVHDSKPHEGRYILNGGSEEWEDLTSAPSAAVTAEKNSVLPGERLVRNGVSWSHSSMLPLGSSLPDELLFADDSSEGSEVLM
The assay can be described thus: LanthaScreen Eu kinase binding assay for Mer. As to conditions: read-out: Mer kinase binding activity (Kd). As for the experimental part: as §1, §2, §3

As usually defined, the Kd is the equilibrium constant for the complex coming apart. `CCCn1cc(OCC(F)(F)F)c(C(=O)Nc2ccc(Oc3ccnc4cc(OC)c(OC)cc34)nc2)n1` [Compound 139]: the Kd at Axl and on Mer was below 0.1 µM throughout.

For `CCCn1cc(OCCNC)c(C(=O)Nc2ccc(Oc3ccnc4cc(OC)c(OC)cc34)cn2)n1` [Compound 140], the Kd on Axl is at least 0.5 µM; at Mer, 0.1 to 0.5 µM.

Turning to `CNCCOc1cn(C2CC2)nc1C(=O)Nc1ccc(Oc2ccnc3cc(OC)c(OC)cc23)cn1` [Compound 141], the Kd at Axl and at Mer was at least 0.5 µM throughout.

Consider `COc1cc2nccc(Oc3ccc(NC(=O)c4nn(C5CC5)cc4NCCC(F)(F)F)nc3)c2cc1OC` [Compound 142], for which the Kd on Axl and at Mer was below 0.1 µM throughout.

Regarding `COc1cc2nccc(Oc3ccc(NC(=O)c4nn(C5CC5)cc4OCC4COC4)nc3)c2cc1OC` [Compound 143], the Kd on Axl and at Mer was below 0.1 µM in each case.

Regarding `COc1cc2nccc(Oc3ccc(NC(=O)c4nn(C5CC5)cc4OCC4CNC4)nc3)c2cc1OC` [Compound 144], the dissociation constant Kd at Axl and on Mer was 0.1 to 0.5 µM throughout.

Turning to `COc1cc2nccc(Oc3ccc(NC(=O)c4nn(C5CC5)cc4NCC(F)(F)F)nc3)c2cc1OC` [Compound 145], the Kd on Axl and on Mer was below 0.1 µM throughout.

As for `COc1cc2nccc(Oc3ccc(NC(=O)c4nn(C5CC5)cc4NCCC(F)(F)F)nn3)c2cc1OC` [Compound 146], the equilibrium dissociation constant (Kd) at Axl and at Mer was below 0.1 µM in each case.

With `COc1cc2nccc(Oc3ccc(NC(=O)c4nn(C5CC5)cc4OC(C)C)nn3)c2cc1OC` [Compound 147], the dissociation constant (Kd) at Axl and at Mer was below 0.1 µM each time.

For `COc1cc2nccc(Oc3ccc(NC(=O)c4nn(C5CC5)cc4NCC(F)(F)F)nn3)c2cc1OC` [Compound 148], the Kd on Axl and on Mer was below 0.1 µM throughout.

For `COc1cc2nccc(Oc3ccc(NC(=O)c4nn(C5CC5)cc4OCC4CCC4)nn3)c2cc1OC` [Compound 149], the dissociation constant Kd at Axl and at Mer was below 0.1 µM in each case.

For the compound `COCCOc1cn(CC(C)O)nc1C(=O)Nc1ccc(Oc2ccnc3cc(OC)c(OC)cc23)cn1` (stereo not drawn) [Compound 150], the equilibrium dissociation constant (Kd) on Axl and on Mer was below 0.1 µM throughout.

Consider `COc1cc2nccc(Oc3ccc(NC(=O)c4nn(CC(C)O)cc4OC(C)C)nc3)c2cc1OC` (stereo not drawn) [Compound 151], for which the Kd on Axl and at Mer was below 0.1 µM each time.

Consider `COc1cc2nccc(Oc3ccc(NC(=O)c4nn(CC(C)O)cc4OCCF)nc3)c2cc1OC` (stereo not drawn) [Compound 152], for which the equilibrium dissociation constant (Kd) at Axl and at Mer was below 0.1 µM throughout.

For the compound `COc1cc2nccc(Oc3ccc(NC(=O)c4nn(CCOC5CC5)cc4OCC(F)(F)F)nc3)c2cc1OC` [Compound 153], the Kd at Axl and at Mer was below 0.1 µM in each case.

For `CNCCn1cc(OCC(F)(F)F)c(C(=O)Nc2ccc(Oc3ccnc4cc(OC)c(OC)cc34)cc2F)n1` [Compound 154], the Kd at Axl and at Mer was below 0.1 µM in each case.

On to `CNCCn1cc(OCC(F)(F)F)c(C(=O)Nc2ccc(Oc3ccnc4cc(OC)c(OC)cc34)c(F)c2)n1` [Compound 155], for which the Kd on Axl was below 0.1 µM; on Mer, 0.1 to 0.5 µM.

Turning to `CNCCn1cc(OCC(F)(F)F)c(C(=O)Nc2ccc(Oc3ccnc4cc(OC)c(OC)cc34)c(C)c2)n1` [Compound 156], the dissociation constant Kd on Axl and on Mer was 0.1 to 0.5 µM each time.

Turning to `COc1cc2nccc(Oc3ccc(NC(=O)c4nn(C5CCN(C)C5)cc4OCC(F)(F)F)nn3)c2cc1OC` (stereo not drawn) [Compound 157], the Kd at Axl and on Mer was 0.1 to 0.5 µM each time.

For `CCCn1cc(NCCC(F)(F)F)c(C(=O)Nc2ccc(Oc3ccnc4cc(OC)c(OC)cc34)cn2)n1` [Compound 158], the Kd on Axl and at Mer was below 0.1 µM in each case.

As for `CCCn1cc(OCC2CNC2)c(C(=O)Nc2ccc(Oc3ccnc4cc(OC)c(OC)cc34)cn2)n1` [Compound 159], the Kd at Axl and at Mer was at least 0.5 µM each time.

For the compound `CNCCOc1cn(C2CC2)nc1C(=O)Nc1ccc(Oc2ccnc3cc(OC)c(OC)cc23)nn1` [Compound 160], the Kd on Axl and on Mer was at least 0.5 µM each time.

`COc1cc2nccc(Oc3ccc(NC(=O)c4nn(C5CC5)cc4OCC4COC4)nn3)c2cc1OC` [Compound 161]: the Kd on Axl and on Mer was below 0.1 µM each time.

With `COc1cc2nccc(Oc3ccc(NC(=O)c4nn(C5CC5)cc4OCC(F)F)nn3)c2cc1OC` [Compound 162], the Kd on Axl and at Mer was below 0.1 µM in each case.

As to `COc1cc2nccc(Oc3ccc(NC(=O)c4nn(CC(C)O)cc4OCC4CCC4)nc3)c2cc1OC` (stereo not drawn) [Compound 163], the Kd on Axl and on Mer was below 0.1 µM in each case.

On to `CCCn1cc(OCC2CCOCC2)c(C(=O)Nc2ccc(Oc3ccnc4cc(OC)c(OC)cc34)cn2)n1` [Compound 164], for which the dissociation constant Kd at Axl and on Mer was below 0.1 µM throughout.

As to `CCCn1cc(OCCN(C)C)c(C(=O)Nc2ccc(Oc3ccnc4cc(OC)c(OC)cc34)c(F)c2)n1` [Compound 165], the dissociation constant Kd at Axl is 0.1 to 0.5 µM; on Mer, at least 0.5 µM.
